# Data: PubChem BioAssay (NCI)
#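 These data come from cells grown in 96-well plates and exposed to compound for 48 hours at five concentrations. Abbreviation: GI50, concentration required for 50% inhibition of growth. TGI: concentration producing complete growth inhibition.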
# Key:
# Experiment in all cases: DTP human tumour cell line panel, 48 h
# CCRF-CEM leukemia = system: CCRF-CEM leukemia
# RXF 393 renal = system: RXF 393 renal
# HL-60(TB) leukemia = system: HL-60(TB) leukemia
# PC-3 prostate = system: PC-3 prostate
# OVCAR-4 ovarian = system: OVCAR-4 ovarian
# NCI-H460 lung = system: NCI-H460 lung
# OVCAR-3 ovarian = system: OVCAR-3 ovarian
# K-562 leukemia = system: K-562 leukemia
# UO-31 renal = system: UO-31 renal
# TK-10 renal = system: TK-10 renal
# SNB-75 CNS = system: SNB-75 CNS
# BT-549 breast = system: BT-549 breast
# HCT-116 colon = system: HCT-116 colon
# MALME-3M melanoma = system: MALME-3M melanoma
# CAKI-1 renal = system: CAKI-1 renal
# NCI-H522 lung = system: NCI-H522 lung
# OVCAR-8 ovarian = system: OVCAR-8 ovarian
# SF-539 CNS = system: SF-539 CNS
# SR leukemia = system: SR leukemia
# ACHN renal = system: ACHN renal
# HT29 colon = system: HT29 colon
# MDA-MB-435 = system: MDA-MB-435
# MDA-MB-231 breast = system: MDA-MB-231 breast
# HOP-62 NSCLC = system: HOP-62 NSCLC
# A498 renal = system: A498 renal
# SN12C renal = system: SN12C renal
# SF-268 CNS = system: SF-268 CNS
# MOLT-4 leukemia = system: MOLT-4 leukemia
# IGROV1 ovarian = system: IGROV1 ovarian
# SK-OV-3 ovarian = system: SK-OV-3 ovarian
# SNB-19 CNS = system: SNB-19 CNS
# EKVX NSCLC = system: EKVX NSCLC
# SK-MEL-2 melanoma = system: SK-MEL-2 melanoma
# A549 NSCLC = system: A549 NSCLC
# LOX IMVI melanoma = system: LOX IMVI melanoma
# 786-0 renal = system: 786-0 renal
# T-47D breast = system: T-47D breast
# SK-MEL-28 melanoma = system: SK-MEL-28 melanoma
# KM12 colon = system: KM12 colon
# HCT-15 colon = system: HCT-15 colon
# SF-295 CNS = system: SF-295 CNS
# MCF7 breast = system: MCF7 breast
# HCC-2998 colon = system: HCC-2998 colon
# SW-620 colon = system: SW-620 colon
# HOP-92 NSCLC = system: HOP-92 NSCLC
# DU-145 prostate = system: DU-145 prostate
# UACC-62 melanoma = system: UACC-62 melanoma
# NCI/ADR-RES ovarian = system: NCI/ADR-RES ovarian
# NCI-H23 lung = system: NCI-H23 lung
# UACC-257 melanoma = system: UACC-257 melanoma
# OVCAR-5 ovarian = system: OVCAR-5 ovarian
# COLO 205 colon = system: COLO 205 colon
# HS 578T breast = system: HS 578T breast
# NCI-H226 lung = system: NCI-H226 lung
# U251 CNS = system: U251 CNS
# M14 melanoma = system: M14 melanoma
# SK-MEL-5 melanoma = system: SK-MEL-5 melanoma
# MDA-N = system: MDA-N
smiles,measurement,setting,value
CCN1C(=O)N(CC)C2C1NN=c1s/c(=C3\C(=O)N(CC(C)(C)C)c4ccccc43)c(=O)n12 (configuration not stated),GI50,CCRF-CEM leukemia,3.62 µM
same,TGI,CCRF-CEM leukemia,> 100 µM
same,GI50,RXF 393 renal,1.83 µM
same,TGI,RXF 393 renal,12.8 µM
same,GI50,HL-60(TB) leukemia,3.78 µM
same,TGI,HL-60(TB) leukemia,22.6 µM
same,GI50,PC-3 prostate,4.31 µM
same,TGI,PC-3 prostate,31.5 µM
same,GI50,OVCAR-4 ovarian,7.77 µM
same,TGI,OVCAR-4 ovarian,66.6 µM
same,GI50,NCI-H460 lung,3.39 µM
same,TGI,NCI-H460 lung,13.4 µM
same,GI50,OVCAR-3 ovarian,3.17 µM
same,TGI,OVCAR-3 ovarian,12.1 µM
same,GI50,K-562 leukemia,1.65 µM
same,TGI,K-562 leukemia,20.9 µM
same,GI50,UO-31 renal,3.65 µM
same,TGI,UO-31 renal,18.2 µM
same,GI50,TK-10 renal,15.3 µM
same,TGI,TK-10 renal,48.5 µM
same,GI50,SNB-75 CNS,2.77 µM
same,TGI,SNB-75 CNS,24.2 µM
same,GI50,BT-549 breast,2.62 µM
same,TGI,BT-549 breast,9.65 µM
same,GI50,HCT-116 colon,3.43 µM
same,TGI,HCT-116 colon,14.5 µM
same,GI50,MALME-3M melanoma,10 µM
same,TGI,MALME-3M melanoma,25.5 µM
same,GI50,CAKI-1 renal,1.84 µM
same,TGI,CAKI-1 renal,22.2 µM
same,GI50,NCI-H522 lung,3.19 µM
same,TGI,NCI-H522 lung,18.5 µM
same,GI50,OVCAR-8 ovarian,4.67 µM
same,TGI,OVCAR-8 ovarian,> 100 µM
same,GI50,SF-539 CNS,2.95 µM
same,TGI,SF-539 CNS,11.1 µM
same,GI50,SR leukemia,0.755 µM
same,TGI,SR leukemia,41.6 µM
same,GI50,ACHN renal,4.04 µM
same,TGI,ACHN renal,18.1 µM
same,GI50,HT29 colon,3.6 µM
same,TGI,HT29 colon,17 µM
same,GI50,MDA-MB-435,1.54 µM
same,TGI,MDA-MB-435,7.1 µM
same,GI50,MDA-MB-231 breast,0.151 µM
same,TGI,MDA-MB-231 breast,2.29 µM
same,GI50,HOP-62 NSCLC,4.93 µM
same,TGI,HOP-62 NSCLC,22.8 µM
same,GI50,A498 renal,1.12 µM
same,TGI,A498 renal,4.85 µM
same,GI50,SN12C renal,2.21 µM
same,TGI,SN12C renal,11.3 µM
same,GI50,SF-268 CNS,4.8 µM
same,TGI,SF-268 CNS,32.1 µM
same,GI50,MOLT-4 leukemia,3.79 µM
same,TGI,MOLT-4 leukemia,40.3 µM
same,GI50,IGROV1 ovarian,3.91 µM
same,TGI,IGROV1 ovarian,23.6 µM
same,GI50,SK-OV-3 ovarian,10.7 µM
same,TGI,SK-OV-3 ovarian,74.6 µM
same,GI50,SNB-19 CNS,4.05 µM
same,TGI,SNB-19 CNS,16 µM
same,GI50,EKVX NSCLC,5.07 µM
same,TGI,EKVX NSCLC,54.2 µM
same,GI50,SK-MEL-2 melanoma,11.3 µM
same,TGI,SK-MEL-2 melanoma,33.1 µM
same,GI50,A549 NSCLC,4.35 µM
same,TGI,A549 NSCLC,36.4 µM
same,GI50,LOX IMVI melanoma,3.38 µM
same,TGI,LOX IMVI melanoma,15.4 µM
same,GI50,786-0 renal,5.65 µM
same,TGI,786-0 renal,27.8 µM
same,GI50,T-47D breast,5.71 µM
same,TGI,T-47D breast,53.7 µM
same,GI50,SK-MEL-28 melanoma,6.94 µM
same,TGI,SK-MEL-28 melanoma,22 µM
same,GI50,KM12 colon,3.67 µM
same,TGI,KM12 colon,18.4 µM
same,GI50,HCT-15 colon,3.31 µM
same,TGI,HCT-15 colon,18.4 µM
same,GI50,SF-295 CNS,2.84 µM
same,TGI,SF-295 CNS,12.6 µM
same,GI50,MCF7 breast,1.62 µM
same,TGI,MCF7 breast,18.7 µM
same,GI50,HCC-2998 colon,3.4 µM
same,TGI,HCC-2998 colon,13.8 µM
same,GI50,SW-620 colon,4.75 µM
same,TGI,SW-620 colon,21.9 µM
same,GI50,HOP-92 NSCLC,2.56 µM
same,TGI,HOP-92 NSCLC,16 µM
same,GI50,DU-145 prostate,3.79 µM
same,TGI,DU-145 prostate,18.6 µM
same,GI50,UACC-62 melanoma,3.06 µM
same,TGI,UACC-62 melanoma,15.8 µM
same,GI50,NCI/ADR-RES ovarian,2.61 µM
same,TGI,NCI/ADR-RES ovarian,13.3 µM
same,GI50,NCI-H23 lung,3.39 µM
same,TGI,NCI-H23 lung,14.5 µM
same,GI50,UACC-257 melanoma,13.1 µM
same,TGI,UACC-257 melanoma,37.9 µM
same,GI50,OVCAR-5 ovarian,6.18 µM
same,TGI,OVCAR-5 ovarian,21.4 µM
same,GI50,COLO 205 colon,3.31 µM
same,TGI,COLO 205 colon,13.5 µM
same,GI50,HS 578T breast,2.66 µM
same,TGI,HS 578T breast,19.7 µM
same,GI50,NCI-H226 lung,5.71 µM
same,TGI,NCI-H226 lung,28.1 µM
same,GI50,U251 CNS,4.13 µM
same,TGI,U251 CNS,20.6 µM
same,GI50,M14 melanoma,3.72 µM
same,TGI,M14 melanoma,20.7 µM
same,GI50,SK-MEL-5 melanoma,2.11 µM
same,TGI,SK-MEL-5 melanoma,5.21 µM
CC(O)CCCCC(O)CCC[C@H](O)[C@H]1CCC([C@H]2CCC([C@@H](O)CCCCCCCCCCCCC3=C[C@H](C)OC3=O)O2)O1 (some centres not stated),TGI,CCRF-CEM leukemia,31.7 µM
same,TGI,RXF 393 renal,22.5 µM
same,TGI,HL-60(TB) leukemia,26.9 µM
same,TGI,PC-3 prostate,21.2 µM
same,TGI,OVCAR-4 ovarian,25.9 µM
same,TGI,MDA-N,22 µM
same,TGI,NCI-H460 lung,18.1 µM
same,TGI,OVCAR-3 ovarian,19.1 µM
same,TGI,UO-31 renal,19 µM
same,TGI,TK-10 renal,19.6 µM
same,TGI,SNB-75 CNS,18.9 µM
same,TGI,BT-549 breast,21.3 µM
same,TGI,HCT-116 colon,15.5 µM
same,TGI,CAKI-1 renal,21.1 µM
same,TGI,NCI-H522 lung,16.7 µM
same,TGI,OVCAR-8 ovarian,21.7 µM
same,TGI,SF-539 CNS,20.6 µM
same,TGI,SR leukemia,20.5 µM
same,TGI,ACHN renal,21.1 µM
same,TGI,HT29 colon,20.7 µM
same,TGI,MDA-MB-435,18.5 µM
same,TGI,MDA-MB-231 breast,21.6 µM
same,TGI,HOP-62 NSCLC,20.7 µM
same,TGI,SN12C renal,22.9 µM
same,TGI,SF-268 CNS,22.4 µM
same,TGI,MOLT-4 leukemia,20.1 µM
same,TGI,IGROV1 ovarian,21.1 µM
same,TGI,SK-OV-3 ovarian,22.1 µM
same,TGI,SNB-19 CNS,20.2 µM
same,TGI,EKVX NSCLC,17.4 µM
same,TGI,SK-MEL-2 melanoma,18.3 µM
same,TGI,A549 NSCLC,17.6 µM
same,TGI,786-0 renal,25.9 µM
same,TGI,SK-MEL-28 melanoma,23.9 µM
same,TGI,KM12 colon,16.2 µM
same,TGI,HCT-15 colon,25.5 µM
same,TGI,SF-295 CNS,18.7 µM
same,TGI,MCF7 breast,16.3 µM
same,TGI,HCC-2998 colon,23.9 µM
same,TGI,SW-620 colon,23.4 µM
same,TGI,HOP-92 NSCLC,21.6 µM
same,TGI,DU-145 prostate,23.2 µM
same,TGI,UACC-62 melanoma,21 µM
same,TGI,NCI/ADR-RES ovarian,15.4 µM
same,TGI,NCI-H23 lung,19.5 µM
same,TGI,UACC-257 melanoma,20.7 µM
same,TGI,OVCAR-5 ovarian,22 µM
same,TGI,COLO 205 colon,23.7 µM
same,TGI,HS 578T breast,29 µM
same,TGI,NCI-H226 lung,19.5 µM
same,TGI,U251 CNS,20.6 µM
same,TGI,M14 melanoma,21.4 µM
same,TGI,SK-MEL-5 melanoma,17.2 µM
